Test results reported in patent US11932850B2, “Cancer chemoprevention with STAT3 blockers” (Jill M. Siegfried, LLC, priority 2018, dated 2024).
“And” between values parts separate entries of the source, which are not always exact repeats. Identical values can stand only once. “Also recorded” adds a separate entry of the source.

How the values were obtained:
[1] = target: T1, pSTAT3-ubiquitin complexes in H1975 cells (Homo sapiens, UniProt P40763); test: p-STAT3 immunoprecipitation and ubiquitin immunoblot; format: cell-based; details: H1975, 100 nM, 24 hr post-transfection
T1 construct: Post-transfection with either 100 nM CS3D or CS3M, H1975 were lysed in IP lysis buffer; endogenous in cells; host or cells: H1975
T1 sequence (P40763 2-770 limits assumed, one chain of several): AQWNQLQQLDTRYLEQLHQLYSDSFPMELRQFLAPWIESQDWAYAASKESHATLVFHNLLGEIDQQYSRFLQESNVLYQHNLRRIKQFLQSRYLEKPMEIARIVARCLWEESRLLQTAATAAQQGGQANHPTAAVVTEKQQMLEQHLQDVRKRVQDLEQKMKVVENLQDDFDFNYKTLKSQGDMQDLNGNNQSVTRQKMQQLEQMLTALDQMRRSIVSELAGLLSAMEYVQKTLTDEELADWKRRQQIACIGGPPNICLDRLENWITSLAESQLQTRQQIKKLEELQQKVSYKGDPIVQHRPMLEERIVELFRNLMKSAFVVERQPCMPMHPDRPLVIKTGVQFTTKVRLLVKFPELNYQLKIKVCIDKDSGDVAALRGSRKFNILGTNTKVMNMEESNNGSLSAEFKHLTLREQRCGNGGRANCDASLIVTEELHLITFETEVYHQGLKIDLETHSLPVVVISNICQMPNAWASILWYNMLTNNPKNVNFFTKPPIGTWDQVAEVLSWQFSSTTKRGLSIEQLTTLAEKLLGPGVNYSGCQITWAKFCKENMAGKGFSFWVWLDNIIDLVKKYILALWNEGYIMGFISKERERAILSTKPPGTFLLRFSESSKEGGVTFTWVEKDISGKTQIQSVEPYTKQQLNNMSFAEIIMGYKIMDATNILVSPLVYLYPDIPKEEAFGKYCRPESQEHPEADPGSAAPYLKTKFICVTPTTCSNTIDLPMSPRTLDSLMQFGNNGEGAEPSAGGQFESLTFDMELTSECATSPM

[2] = tested on: cleaved caspase-3 in H1975 xenografts; test: IHC of cleaved caspase-3 in H1975 xenografts at end of treatment; format: in vivo, nude mice; details: after last day of treatment (day 14)
From the text: For mRNA levels in tumor lysates, CS3D produced a 60-70% reduction of c-Myc gene expression relative to GAPDH compared to CS3M (FIG. 7E). […] Some cleaved caspase 3 staining was localized in nuclei, where caspase-3 is known to be active. Some caspase 3 staining was also evident in fibroblasts.
Immunohistochemical analysis: Tumors were excised for immunohistochemical (IHC) staining; 5-μm (micron) sections were cut from formalin-fixed paraffin-embedded tissue blocks, deparaffinized and rehydrated using successive washes of xylene followed by ethanol. Antigen retrieval was performed in a microwave oven (for 20 minutes) in an unmasking solution containing sodium citrate buffer followed by peroxidase blocking in 3% hydrogen peroxide. The sections were incubated in ABC blocking buffer (Vector laboratories Inc, Burlingame, California) for 1 hour at room temperature. Sections were then stained with H&E (hematoxylin and eosin) or subjected to sequential incubations with different primary antibodies and peroxidase-conjugated goat anti-rabbit secondary antibodies. […] Staining was graded as low (<30% positive cells per field, scored as 1), moderate (30-60% positive cells per field, scored as 2) or high (>60% positive cells per field, scored as 3).

[3] = tested on: NNK-induced lung preneoplasias and tumors; test: NNK-induced lung tumor model for chemoprevention, second experiment; format: in vivo, mice
Method: To confirm these findings, in a second experiment, in which 24 mg NNK was given (3 mg by ip injection, twice a wk, ×4 wks,), this was followed by one week rest and then immediate treatment with 5 mg/kg CS3D or CS3M, 3 daily injections per week, for 8 weeks. Then 1 week, 8 weeks, or 20 weeks after the end of the treatment course ([…], 21, and 33 weeks after beginning the NNK exposure), necropsy was performed. […] Lung tumors were evaluated by inspecting formalin-fixed lungs visually and by histology after H & E staining. […] Tumor burden (detected by neoplastic growths [adenomas] observed in lung sections) was also assessed at the week 1 timepoint after treatment. Consistent with reduction in preneoplasia, we observed a decrease in the average number of tumors (a 60% reduction in tumors in the CS3D-treated animal) (FIG. 14A).
The chemopreventive effect of CS3D compared to CS3M on lung tumor development was studied in an NNK-induced immunocompetent lung tumor model using the tobacco carcinogen, 4-(methylnitrosamino)-1-(3-pyridyl)-1-butanone, CAS Reg. No. 64091-91-4 (NNK) in mice. The advantages of this model are: NNK is an inducer of KRAS mutations, it is known to induce lung cancers in mice and humans, and the model is immunocompetent. In addition, this is a useful model for studying chemoprevention after exposure to a carcinogenic agent (Hecht S S, et al, Cancer Res. (1980) 40(2):298-302).
After four weeks of NNK exposure, mice are then dosed IV 2 times per week with CS3D or CS3M (5 mg/kg) for eight weeks. The mice are sacrificed after at one week, 8 weeks, and 20 weeks after the end of oligonucleotide dosing to examine lungs. Lungs are formalin-inflated and surface tumors are enumerated visually under a dissecting microscope. The area of each tumor is measured with a analysis tool built in the imaging software LAS v4.7 (Leica). Lungs are also sectioned and examined histologically by hematoxylin and eosin staining for counting the preneoplasia and tumors.

[4] = tested on: M1 macrophages, M2 macrophages, MDSCs; test: Flow cytometry of immune cells isolated from lungs of NNK mice; format: in vivo
From the text: STAT3 also plays a central role in immune evasion. STAT3 specifically orchestrates immunosuppression by promoting M2 macrophage and myeloid-derived suppressor cells (MDSCs) activity while suppressing M1 macrophage function [Su et al. Int. J. Mol. Science 19: pll:E1803, 2018]. Thus STAT3 inhibition by CS3D should favor an antitumor immune response by enhancing M1 macrophage activity.
Lungs from mice were digested with RPMI media containing collagenase and DNase to obtained single cell suspension. The cells were counted and 1×10^6 cells were staining with fluorescent labeled CD45, CD11b, MHC II, Ly6C and F4/80. The labeled cells were gated and data acquired on LSR fortessa (BD Biosciences) and further analysed by Flowjo.

[5] = NNK 4 weeks then 1 week of drug administration

Substance: CS3D (DNA GATTTACGGGAAATGCSCATTTCCC; cyclic decoy with two hexaethylene glycol linkers, further chemistry not given here)
- ratio of pSTAT3-ubiquitin complex to STAT3 (densitometry) [1]: 0.95
- fields scoring high level of cleaved caspase-3 [2]: 83%
- toxicity (body weight, behavior, liver and spleen) ([3]; 5 mg/kg for 8 weeks): no body weight changes were observed; also recorded: no toxicity observed
- higher count of preneoplasia ([3]; 8 weeks after treatment ended, vs CS3M): 43%
- lower number of adenomas ([3]; 8 weeks post-treatment, vs CS3M): 52%
- reduction in average number of tumors per animal ([3]; 20 weeks after end of treatment, vs CS3M): approximately 40% and 42%
- lower tumor size ([3]; 20 weeks post-treatment, vs CS3M): 49.8% and 50%
- fewer preneoplasias on average per animal ([3]; week 1 after 8 week treatment, 5 mg/kg, vs CS3M): approximately 25%
- reduction in average number of tumors ([3]; week 1 after 8 week treatment, vs CS3M): 60%
- M2 macrophages [4, 5]: 5.53%
- MDSCs [4, 5]: 14.2%
- proportion of M1 macrophages in the lung TME ([4]; NNK 4 weeks then 1 week of drug, vs CS3M): increasing
